Experimental data as given in ChEMBL document CHEMBL1671739, “Reservoir of antimicrobial resistance determinants associated with horizontal gene transfer in clinical isolates of the genus Shewanella” (2010).
≈ marks a conversion by molar mass, not a printed value.

Experiments:
Type in all cases: functional
Shewanella algae [1] = test: Antimicrobial activity against Shewanella algae Sa2 harboring intI1, intI2 and sul1 genes by CLSI method
Shewanella algae [2] = test: Antimicrobial activity against Shewanella algae Sa74 harboring intI1, intI2, sul1 and sul2 genes by CLSI method
Shewanella algae [3] = test: Antimicrobial activity against Shewanella algae Sa392 harboring intI1, intI2, sul1 and sul2 genes by CLSI method
Shewanella algae [4] = test: Antimicrobial activity against Shewanella algae Sa10 harboring intI1, intI2, sul1 and sul2 genes by CLSI method
Shewanella putrefaciens [5] = test: Antimicrobial activity against Shewanella putrefaciens Sp117 harboring intI1,sul1,sul2 and beta-lactamase OXA-48 like genes by CLSI method
Shewanella algae [6] = test: Antimicrobial activity against Shewanella algae Sa78 harboring sul2 gene by CLSI method
Shewanella algae [7] = test: Antimicrobial activity against Shewanella algae Sa9 harboring intI1, intI2, sul1 and sul2 genes by CLSI method
Shewanella algae [8] = test: Antimicrobial activity against Shewanella algae Sa82 harboring intI1, intI2, sul1 and sul2 genes by CLSI method
Shewanella putrefaciens [9] = test: Antimicrobial activity against Shewanella putrefaciens Sp31 harboring intI1 and beta-lactamase OXA-48 like genes by CLSI method
Shewanella putrefaciens [10] = test: Antimicrobial activity against Shewanella putrefaciens Sp95 harboring intI1,sul1,sul2 and beta-lactamase OXA-48 like genes by CLSI method

C[C@@H](O)[C@H]1C(=O)N2C(C(=O)O)=C(SCCNC=N)C[C@H]12 [IMIPENEM ANHYDROUS]
MIC (Shewanella algae [1]): 0.25 µg/mL (≈ 0.835 µM) | MIC (Shewanella algae [2]): 4 µg/mL (≈ 13.4 µM) | MIC (Shewanella algae [3]): 4 µg/mL (≈ 13.4 µM) | MIC (Shewanella algae [4]): 8 µg/mL (≈ 26.7 µM) | MIC (Shewanella putrefaciens [5]): 1 µg/mL (≈ 3.34 µM) | MIC (Shewanella algae [6]): 4 µg/mL (≈ 13.4 µM) | MIC (Shewanella algae [7]): 2 µg/mL (≈ 6.68 µM) | MIC (Shewanella algae [8]): 0.25 µg/mL (≈ 0.835 µM) | MIC (Shewanella putrefaciens [9]): 0.25 µg/mL (≈ 0.835 µM) | MIC (Shewanella putrefaciens [10]): 0.5 µg/mL (≈ 1.67 µM)

C[C@@H](O)[C@H]1C(=O)N2C(C(=O)O)=C(S[C@@H]3CN[C@H](C(=O)N(C)C)C3)[C@H](C)[C@H]12 [MEROPENEM]
MIC (Shewanella algae [1]): 0.032 µg/mL (≈ 0.0834 µM) | MIC (Shewanella algae [2]): 0.0094 µg/mL (≈ 0.0245 µM) | MIC (Shewanella algae [3]): 1 µg/mL (≈ 2.61 µM) | MIC (Shewanella algae [4]): 1 µg/mL (≈ 2.61 µM) | MIC (Shewanella putrefaciens [5]): 4 µg/mL (≈ 10.4 µM) | MIC (Shewanella algae [6]): 0.25 µg/mL (≈ 0.652 µM) | MIC (Shewanella algae [7]): 0.125 µg/mL (≈ 0.326 µM) | MIC (Shewanella algae [8]): 0.38 µg/mL (≈ 0.991 µM) | MIC (Shewanella putrefaciens [9]): 0.125 µg/mL (≈ 0.326 µM) | MIC (Shewanella putrefaciens [10]): 0.25 µg/mL (≈ 0.652 µM)
